For two molecules, mass density and refractive index results are on record in the NIST ThermoML archive (doi:10.1016/j.jct.2006.05.004).

For orientation: mass density means mass per unit of volume. The term refractive index denotes a measure of how strongly the sample bends light.

For data set [1] the following is noted: 298.15 K; 101.33 kPa; Liquid.
Data set [2] can be described thus: refractive index (Na D-line) (dimensionless). The settings on record: 298.15 K; 101.33 kPa; Liquid; Standard Abbe refractometry.

Numbers after ± are expanded uncertainties.

On to `COC=O` [methyl methanoate], for which the mass density in data set [1] is 966.83 ± 0.7 kg/m3. The refractive index in data set [2] stood at 1.3415 ± 0.0008.
For `COC(C)=O` [methyl ethanoate], the mass density in data set [1] was 926.73 ± 0.84 kg/m3. Moreover, the refractive index in data set [2] amounted to 1.3585 ± 0.0008.
